{"source": "patent US9359196B2", "about": "“Antiproliferative compositions comprising curcumin analogs and methods of producing and using same” (The Board of Regents of the University of Oklahoma, priority 2009, dated 2016)", "key": {"H441 cells [1]": {"test_system": "H441 cells", "assay": "Monodansylcadaverine fluorescence microscopy of autophagosomes in H441 cells", "type": "cell-based, human", "method": "Monodansylcadaverine (MDC) is an autofluorescent marker for autophagic vacuoles. [Biederbick et al., 1995] It was found the emergence of intense MDC-fluorescence in the treated cells. The fluorescence vanished when the cells were treated with 3-methyl adenine (3-MA). […] [Seglen et al., 1982]"}, "[2]": {"test_system": "lung adenocarcinoma cell line H441", "assay": "Cell proliferation (hexosaminidase assay) in lung adenocarcinoma H441 cells, Example 1", "type": "cell-based, human", "details": "for IC50: Homo sapiens, NCI-H441, 24 h of treatment", "method": "Cell Proliferation Studies: In order to assess the anti-proliferative activity of the synthesized compounds, an in vitro cell culture system of lung adenocarcinoma cell line H441 was used. The cell detachment and anti-proliferative activity was measured as a decrease in hexosaminidase enzyme activity associated with remainder of the adhered cells. [Landegren, 1984] […] The concentration versus cell proliferation plots were analyzed by an exponential fit (Table 1). The results were compared with the anti-proliferative activity of compound 1.\nCell Culture and drug treatment: Human lung adenocarcinoma cell line NCI-H441 (ATCC Number: HTB-174) was obtained from the American Type Culture Collection (Manassas, Va.). H441 cells were maintained at 37° C. with 5% CO2 in McCoy's 5A Medium (Invitrogen, Carlsbad, Calif.) supplemented with 5% heat-inactivated fetal bovine serum (FBS). All media contained gentamicin at 50 μg/ml (GIBCO Laboratories, Grand Island, N.Y.). Other cells lines (PANC-1, MiaPaCa-2 and PC-3) were also similarly maintained, except that the cell culture medium was RPMI 1640 instead of McCoy's.\nTo evaluate the anti-proliferative activity of synthesized bis(2-fluorobenzylidene)-4-piperidone and its derivatives, the cells were seeded in 96-well flat-bottom tissue culture plates at a density of 10×10^3 cells per well. The cells were allowed to attach and grow overnight. The test compounds were solubilized in dimethyl sulfoxide (DMSO), filtered through 0.2 μm nylon filter and added to cells at 1, 10, 25 and 100 μM concentrations in culture medium supplemented with 5% FBS. The DMSO concentration was maintained at 0.1% per well. Control wells received equivalent volume of DMSO without any test compounds. The cells were allowed to remain in the treatment medium for 24, 48 and 72 hours.\nCell Proliferation: The total number of cells after the treatment period was estimated by the hexosaminidase assay. [Landegren, 1984] Briefly, the medium was removed and hexosaminidase substrate solution in citrate buffer pH 5 (7.5 mM), […] (Calbiochem, San Diego, Calif.) was added at 60 μl per well. The plate was incubated at 37° C. in 100% humidity for 30 minutes, before stopping the reaction with 90 μl of 50 mM glycine containing 5 mM of EDTA (pH 10.4). The absorbance was measured at 405 nm. The experiments were conducted in triplicate, and repeated at least twice. The data were analyzed as percent of control, where the control wells were treated with equivalent amounts of DMSO alone, and the analyzed data was presented as average±standard error of mean. The differences among mean values were deemed significant at p<0.05.\nFor IC50 calculations, a plot between the drug concentration and hexosaminidase activity was generated and the data was fitted either linearly or exponentially. The best fit was used for further processing of data."}, "[3]": {"test_system": "normal lung fibroblasts LL-24", "assay": "In vitro anti-proliferative activity in normal lung fibroblasts LL-24", "type": "cell-based", "details": "LL-24, identical treatment conditions (10 μM, 24 h)", "method": "Human lung adenocarcinoma cell line NCI-H441 (ATCC # HTB-174) and normal lung fibroblasts LL-24 (ATCC #CCL-151) were obtained from American Type Culture Collection (Manassas, Va.). The cells were maintained at 37° C. with 5% CO2 in RPMI 1640 medium (Invitrogen, Carlsbad, Calif.). The medium was supplemented with 10% heat-inactivated fetal bovine serum and 50 μg/ml of gentamicin (GIBCO Laboratories, Grand Island, N.Y.). For cell proliferation assay, the cells were seeded in 96-well flat-bottom tissue culture plates at a density of 0.5−1×10^4 cells per well. The cells were allowed to adhere and grow overnight, followed by treatment with CLEFMA or CLEFMA-liposomes. The concentration of CLEFMA was maintained in the range of 0.1-25 μM in 100 μl of RPMI 1640 medium. For comparison, the cells were also treated with 1 and 10 μM natural curcumin and EF24. EF24 is a potent synthetic curcuminoid and a close analog of CLEFMA [Adams et al., 2004]. All solutions of plain drugs were made in dimethylsulfoxide (DMSO). The concentration of DMSO in the treatment medium was maintained at 0.1%. The control wells received equivalent amounts of DMSO or phospholipid-matched control liposomes. Inhibition of cell proliferation was determined by measuring a decrease in hexosaminidase activity as described by Landegren [Landegren, 1984]. […]"}, "[4]": {"assay": "Histopathology of liver, lung and kidney", "type": "in vivo", "details": "rats treated with CLEFMA liposomes", "text": "After the animals were euthanized, a part of the liver, lung and kidney were fixed in 10% formalin. The formalin-preserved tissues were used for histology by staining 5 μm sections of paraffin-embedded tissues with H&E stain. The sections were read by a veterinary pathologist (OUHSC, Oklahoma City) in a blinded fashion for the presence of necrosis, hemorrhage, inflammation or any other pathological changes."}, "H441 cells [5]": {"test_system": "H441 cells", "assay": "Transmission electron microscopy of treated H441 cells (autophagy)", "type": "cell-based, human", "details": "24 hour treatment, 1 and 10 μM", "method": "Transmission Electron Microscopy (TEM): TEM was performed after 24 hour treatment with 1 and 10 μM of compound 1 or compound 29 (CLEFMA). The cells were fixed in 0.1M sodium cacodylate buffer containing 4% paraformaldehyde (PFA) and 2% glutaraldehyde for 4 h at room temperature. The samples were post-fixed in 1% osmium tetroxide for 1.5 h and washed with 0.1M sodium cacodylate buffer, followed by dehydration in an ethanol series of 50%, 60%, 75%, 85%, and 95% for 15 minutes each. The cells were washed twice in 100% Ethanol and passed through a series of epon-araldite (6.2 g epon+4.4 g araldite+12.4 g of dodecenyl succinic anhydride+0.8 g N,N-dimethylbenzylamine) solution in ethanol, [Matsko et al., 2005] before embedding the cells in epon-araldite resin. Finally, 100 nm sections were cut using a microtome, and the sections were placed on glow-discharged 300 mesh Copper grids. The ultrasections were stained with Sato's lead (mixture of calcinated lead citrate, lead nitrate, lead acetate and sodium citrate), and observed by a Hitachi H-7600 Transmission Electron Microscope at 2500× (Oklahoma Medical Research Foundation Imaging and core facility, Oklahoma City)."}}, "note": "Read-outs that look alike come from different tables or passages of the source."}
{"smiles": "O=C(O)C=CC(=O)N1CC(=Cc2ccccc2Cl)C(=O)C(=Cc2ccccc2Cl)C1", "note": "[Compound 29, 4-[3,5-Bis-(2-chlorobenzylidene)-4-oxo-piperidin-1-yl]-4-oxo-2-butenoic acid]", "values": [{"measurement": "autophagosome formation (MDC fluorescence)", "setting": "H441 cells [1]", "value": "appearance of intracellular vacuoles or autophagosomes"}, {"measurement": "anti-proliferative activity in words, relative to the comparator named", "setting": "[2]", "value": "enhanced the potency of antiproliferative action"}, {"measurement": "IC50", "setting": "[2]; 1-100 μM tested, fitted plot, read-out: IC50 value", "value": 1000, "unit": "nM"}, {"measurement": "IC50", "setting": "[2]; read-out: IC50 (grouping relative to compound 1)", "value": "< 30000", "unit": "nM"}, {"measurement": "effect on normal lung fibroblasts", "setting": "[3]", "value": "essentially remained unscathed"}, {"measurement": "histopathological toxicity in liver, lung and kidney", "setting": "[4]", "value": "no toxicities in these tissues"}, {"measurement": "change in cellular architecture (TEM)", "setting": "H441 cells [5]", "value": "induced a substantial change in cellular architecture"}]}
